pIC50: −log10 of the molar value.
biological target: JNK3 kinase (Homo sapiens, UniProt P53779); assay: JNK3 SPA assay (phosphorylation of GST-c-Jun, [γ-33P] ATP); type: biochemical; conditions: 3.33 μM ATP, GST-c-Jun substrate, 30 minutes at room temperature
Method: JNK1, JNK27 JNK3—SPA Assay
A typical assay for testing the activity of compounds to inhibit JNK1, JNK2 and JNK3 enzymes is as follows: • 1. Compound is dissolved in DMSO to a convenient concentration and this is diluted in 10% DMSO to a five times concentrate of the desired starting concentration (frequently 1:100). • 2. 10 μl of 500 mM EDTA is added to alternative wells of the Opti-plate row, which will receive kinase reaction plus DMSO. This creates the negative control. • 3. For the JNK2 and JNK3 assay, compounds are prepared in six 2-fold dilutions with water and each concentration is tested in duplicate. For the JNK1 assay compounds are prepared in four 5-fold dilutions with water which are tested in triplicate. Controls are treated identically. • 4. 20 μl per well of each compound concentration is transferred to an Opti-plate, in duplicate. • 5. 30 μl (JNK2/3 SPA) or 50 μl (JNK1 SPA) of substrate solution (25 mM HEPES pH 7.5, 10 mM magnesium acetate with 3.33 μm ATP (JNK2/3) or 2 μM ATP (JNK1), approximately 7.5 kBq [γ-33P] ATP, GST-c-Jun, in water) is added to each well. • 6. 50 μl (JNK2/3 SPA) or 30 μl (JNK1 SPA) of kinase solution (JNK in 25 mM HEPES pH 7.5, 10 mM Mg Acetate) is added to each well.
• 7. The plate is incubated for 30 minutes at room temperature. • 8. 100 μl of bead/stop solution is added to each well (5 mg/ml glutathione-PVT-SPA beads, 40 µM ATP in PBS). • 9. Plates are sealed and incubated for 30 minutes at room temperature, centrifuged for 10 minutes at 2500 g and counted. • 10. The IC50 values are calculated as the concentration of the compound being tested at which the phosphorylation of c-Jun is decreased to 50% of the control value.

JNK3 kinase, sequence (P53779 whole entry): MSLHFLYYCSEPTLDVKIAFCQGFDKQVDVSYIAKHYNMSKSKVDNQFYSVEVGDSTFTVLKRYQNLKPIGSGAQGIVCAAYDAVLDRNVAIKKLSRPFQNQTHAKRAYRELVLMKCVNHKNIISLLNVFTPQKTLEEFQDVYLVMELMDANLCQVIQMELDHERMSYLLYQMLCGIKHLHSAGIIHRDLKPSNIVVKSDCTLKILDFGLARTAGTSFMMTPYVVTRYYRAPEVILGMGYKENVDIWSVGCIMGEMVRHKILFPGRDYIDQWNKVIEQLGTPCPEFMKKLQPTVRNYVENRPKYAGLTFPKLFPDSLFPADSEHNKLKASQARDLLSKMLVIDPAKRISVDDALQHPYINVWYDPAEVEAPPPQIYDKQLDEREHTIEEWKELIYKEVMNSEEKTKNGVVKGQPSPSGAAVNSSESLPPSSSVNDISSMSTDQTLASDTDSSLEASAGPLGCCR

| pIC50 | Compound |
| --- | --- |
| 6.11 | O=C(NNc1ccccc1)c1c[nH]c2ncc(-c3cccc(F)c3)cc12 |
| 6.07 | C#CCNC(=O)c1c[nH]c2ncc(-c3cccc(F)c3)cc12 |
| 6.28 | C#CCNC(=O)c1c[nH]c2ncc(-c3ccc(N(C)C)cc3)cc12 |
